Source: PMC9598282 (Antibiotics, 2022)

What was measured:
E. coli 107115 = format: cell-based, Escherichia coli; details: colistin-susceptible MDR isolate
Description: (§1) For the preparation of the bacterial solution, overnight grown culture was diluted in 0.85% saline solution, adjusted to 0.5 McFarland turbidity and further diluted in Mueller–Hinton broth for inoculation to a final concentration of 5 × 10^5 colony forming units/mL (CFU/mL). The agents were serially diluted two-fold in a 96-well plate, and equal volumes of bacterial solution were subsequently added to the designated wells. The well consisting of bacterial solution served as the positive control, while the well containing only media served as the negative control. The plate was then incubated at 37 °C for 18 h. After incubation, an Emax Plus microplate reader (Molecular Devices, Union City, CA, USA) was used to measure the optical density (OD) at a wavelength of 590 nm to confirm the turbidity. The antibacterial activity corresponded to the MIC, which is defined as the lowest concentration of the agent necessary to inhibit visible bacterial growth.

E. coli 94474 = format: cell-based, Escherichia coli; details: colistin-resistant isolate
Description: as §1

E. coli ATCC 25922 = format: cell-based, Escherichia coli; details: wild-type
Description: as §1

E. coli 94393 = format: cell-based, Escherichia coli; details: colistin-resistant isolate
Description: as §1

Hep G2 cells = assay: Cell viability assay (PrestoBlue); format: cell-based, human; details: 48 h
Description: (§2) The cytotoxicity of the guanidinylated polymyxins was evaluated using the cell viability assay as previously described. Human embryonic kidney cells (HEK293) and liver carcinoma cells (Hep G2) were cultured in flasks with Dulbecco’s Modified Eagle’s Medium (DMEM) supplemented with 10% fetal bovine serum. The cells were incubated at 5% CO2 in a humidified atmosphere at 37 °C. Equal volumes of media (50 μL) containing approximately 8000 cells (Hek293) or 5000 cells (HepG2) were added to wells in 96-well plates. The wells containing only media with no cells served as blanks. The plate was incubated for 24 h. Double the final desired concentrations of the agent were subsequently added to each well (experimental and blanks) in a volume of 50 μL. After 48 h incubation, PrestoBlue reagent from Invitrogen (Waltham, MA, USA,) was added to a final concentration of 10% (v/v), and plates were incubated for an additional1 h at 5% CO2. Fluorescence (excitation/emission, 560/590 nm) was measured with a SpectraMax M2 plate reader (Molecular Devices, United States). Values from the blank wells were subtracted from the corresponding wells with cells. The cell viability relative to the controls with a vehicle was calculated. The plots indicate the mean ± standard deviation of two experiments with five samples each. […]

HEK293 cells = assay: Cell viability assay (PrestoBlue); format: cell-based, human; details: 48 h
Description: as §2

P. aeruginosa PA 88949 = assay: MIC, broth microdilution; format: cell-based, Pseudomonas aeruginosa; details: β-lactamase harboring isolate
Description: as §1

P. aeruginosa PA 86052 = assay: MIC, broth microdilution; format: cell-based, Pseudomonas aeruginosa; details: β-lactamase harboring isolate
Description: as §1

P. aeruginosa PA 107092 = assay: MIC, broth microdilution; format: cell-based, Pseudomonas aeruginosa; details: β-lactamase harboring isolate
Description: as §1

P. aeruginosa PA 109084 = assay: MIC, broth microdilution; format: cell-based, Pseudomonas aeruginosa; details: β-lactamase harboring isolate
Description: as §1

E. cloacae 121187 = format: cell-based, Enterobacter cloacae; details: colistin-resistant isolate
Description: as §1

E. cloacae 118564 = format: cell-based, Enterobacter cloacae; details: colistin-resistant isolate
Description: as §1

K. pneumoniae 113254 = format: cell-based, Klebsiella pneumoniae; details: colistin-resistant isolate
Description: as §1

K. pneumoniae 113250 = format: cell-based, Klebsiella pneumoniae; details: colistin-resistant isolate
Description: as §1

P. aeruginosa 101243 = format: cell-based, Pseudomonas aeruginosa; details: colistin-resistant isolate
Description: as §1

P. aeruginosa PAO1 = format: cell-based, Pseudomonas aeruginosa; details: wild-type
Description: as §1

[1] = test system: P. aeruginosa P264-104354; format: cell-based, Pseudomonas aeruginosa; details: colistin-susceptible MDR isolate
Description: as §1

[2] = test system: P. aeruginosa P262-101856; format: cell-based, Pseudomonas aeruginosa; details: colistin-susceptible MDR isolate
Description: as §1

P. aeruginosa P259-96918 = format: cell-based, Pseudomonas aeruginosa; details: colistin-susceptible MDR isolate
Description: as §1

P. aeruginosa 114228 = format: cell-based, Pseudomonas aeruginosa; details: colistin-resistant isolate
Description: as §1

A. baumannii AB027 = format: cell-based, Acinetobacter baumannii; details: colistin-susceptible MDR isolate
Description: as §1

A. baumannii 92247 = format: cell-based, Acinetobacter baumannii; details: colistin-resistant isolate
Description: as §1

A. baumannii ATCC 17978 = format: cell-based, Acinetobacter baumannii; details: wild-type
Description: as §1

A. baumannii 110193 = format: cell-based, Acinetobacter baumannii; details: colistin-susceptible MDR isolate
Description: as §1

A. baumannii LAC-4 = format: cell-based, Acinetobacter baumannii; details: colistin-susceptible MDR isolate
Description: as §1

For polymyxin B [PMB], the MIC (E. coli 107115) was ≤0.125 mg/L, the MIC (E. coli 94474) was 16 mg/L and the MIC (E. coli ATCC 25922) was 1 mg/L. The MIC (E. coli 94393) was 2 mg/L, the “concentration up to which Hep G2 cells maintained 100% viability” value (Hep G2 cells) was 25 µM and the “concentration up to which HEK293 cells maintained >90% viability” value (HEK293 cells) was 125 µM. For the same substance, the MIC (P. aeruginosa PA 88949) was 0.5 mg/L, the MIC (P. aeruginosa PA 86052) was 0.25 mg/L and the MIC (P. aeruginosa PA 107092) was 0.25 mg/L. The MIC (P. aeruginosa PA 109084) was 0.25 mg/L, the MIC (E. cloacae 121187) was >64 mg/L and the MIC (E. cloacae 118564) was >64 mg/L. The MIC (K. pneumoniae 113254) was >64 mg/L, the MIC (K. pneumoniae 113250) was >64 mg/L and the MIC (P. aeruginosa 101243) was >128 mg/L. It also gave an MIC (P. aeruginosa PAO1) of 0.5 mg/L, an MIC [1] of 2 mg/L and an MIC [2] of 0.5 mg/L. The MIC (P. aeruginosa P259-96918) was ≤0.0625 mg/L, the MIC (P. aeruginosa 114228) was 64 mg/L and the MIC (A. baumannii AB027) was 0.25 mg/L. The MIC (A. baumannii 92247) was 8 mg/L, the MIC (A. baumannii ATCC 17978) was 2 mg/L and the MIC (A. baumannii 110193) was 1 mg/L. The MIC (A. baumannii LAC-4) was 0.5 mg/L.
